Assay results published in patent US5736539A, “Inhibitors of farnesyl-protein transferase” (Merck & Co., Inc., priority 1995, dated 1998).
Where a name gives a salt, the structure may show the parent alone. One block for each compound: values may come before it.

Legend:
[1] = system: Ras farnesylation in the v-ras cell line (viral Ha-ras p21); assay: In vivo ras farnesylation assay (v-ras cell line, immunoprecipitation, percent inhibition of farnesyl transfer to protein); assay type: cell-based; settings: 4 h at 37° C. then additional 20 h labelling with [35S]methionine
Protocol: In vivo ras farnesylation assay
The cell line used in this assay was the v-ras line, which expressed viral Ha-ras p21. The assay was performed essentially as described in DeClue, J. E. et. al., Cancer Research 51,712-717, (1991). Cells in 10 cm dishes at 50-75% confluency were treated with the test compound (final concentration of solvent, methanol or dimethyl sulfoxide, was 0.1%). After 4 hours at 37° C., the cells were labelled in 3 ml methionine-free DMEM supplemeted with 10% regular DMEM, 2% fetal bovine serum and 400 μCi[^35 S]methionine (1000 Ci/mmol). After an additional 20 hours, the cells were lysed in 1 ml lysis buffer (1% NP40/20 mM HEPES, pH 7.5/5 mM MgCl2 /1 mM DTT/10 μg/ml aprotinen/2 μg/ml leupeptin/2 μg/ml antipain/0.5 mM PMSF) and the lysates cleared by centrifugation at 100,000×g for 45 min. Aliquots of lysates containing equal numbers of acid-precipitable counts were bought to 1 ml with IP buffer (lysis buffer lacking DTT) and immunoprecipitated with the ras-specific monoclonal antibody Y13-259 (Furth, M. E. et. al., J. Virol. 43, 294-304, (1982)). Following a 2 hour antibody incubation at 4° C., 200 μl of a 25% suspension of protein A-Sepharose coated with rabbit anti rat IgG was added for 45 min. The immunoprecipitates were washed four times with IP buffer ([…] HEPES, pH 7.5/1 mM EDTA/1% Triton X-100.0.5% deoxycholate/0.1%/SDS/0.1M NaCl) boiled in SDS-PAGE sample buffer and loaded on 13% acrylamide gels. When the dye front reached the bottom, the gel was fixed, soaked in Enlightening, dried and autoradiographed. The intensities of the bands corresponding to farnesylated and nonfarnesylated ras proteins were compared to determine the percent inhibition of farnesyl transfer to protein.

[2] = molecular target: Farnesyl-protein transferase (FPTase); assay: In vitro inhibition of ras farnesyl transferase (Ras-CVLS, [3H]FPP); assay type: biochemical, bovine brain or recombinant human; settings: Ras-CVLS 3.5 μM, 0.25 μM [3H]FPP; partially purified bovine or recombinant human enzyme; read-out: IC50 (concentration of the test compound which gives 50% inhibition of FPTase)
Protocol: Ras-CVLS at 3.5 μM, 0.25 μM [^3 H]FPP, and the indicated compounds were incubated with either a partially purified bovine enzyme preparation or a recombinant human enzyme preparation.

Ras farnesylation = settings: Hancock et al.; Casey et al.; Schafer et al., Science 245:379 (1989); cited from earlier work

Compound: COCC[C@H]1CN(C(=O)c2cccc3ccccc23)CCN1C[C@@H](N)CS [Example 12, 1-[2(R)-Amino-3-mercaptopropyl]-4-(1-naphthoyl)-2(S)-(2-methoxyethyl)piperazine dihydrochloride]
- IC50 [1]: 0.5 µM
- IC50 [2]: 0.005 µM

Compound: CCCC[C@H]1CN(C(=O)c2cccc3ccccc23)CCN1C[C@@H](N)CS [Example 16, 1-[2(R)-Amino-3-mercaptopropyl]-2(S)-n-butyl-4-(1-naphthoyl)piperazine dihydrochloride]
- IC50 [1]: 0.5 µM
- IC50 [2]: 0.002 µM

- IC50 [2]: 0.001 µM
Compound: COCC[C@H]1CN(C(=O)c2cccc3ccccc23)CCN1C[C@@H](N)CSSC[C@H](N)CN1CCN(C(=O)c2cccc3ccccc23)C[C@@H]1CCOC [Example 21, bis-1, 1'-[2(R)-Amino-3-(2(S)-(2-methoxyethyl)-4-naphthoyl-1-piperazinyl)]propyl disulfide tetrahydrochloride]

Compound: CCCC[C@H]1CN(C(=O)c2cccc3c2OCC3)CCN1C[C@@H](N)CS [Example 17, 1-[2(R)-Amino-3-mercaptopropyl]-2(S)-n-butyl-4-[7-(2,3-dihydrobenzofuranoyl)]piperazine dihydrochloride]
- IC50 [1]: 0.5 µM
- IC50 [2]: 0.006 µM

Compound: CCCOCC[C@H]1CN(C(=O)c2cccc3ccccc23)CCN1C[C@@H](N)CS [Example 13, 1-[2(R)-Amino-3-mercaptopropyl]-2(S)-(2-(1-propoxy)ethyl)-4-(1-naphthoyl)piperazine dihydrochloride]
- IC50 [1]: 0.5 µM
- IC50 [2]: 0.003 µM

Compound: CCCC[C@H]1CN(C(=O)c2cccc(C)c2C)CCN1C[C@@H](N)CS [Example 3, 1-[2(R)-Amino-3-mercaptopropyl]-2(S)-n-butyl-4-(2,3-dimethylbenzoyl)piperazine dihydrochloride]
- IC50 [1]: 5 µM
- IC50 [2]: 0.006 µM

Compound: CSCC[C@H]1CN(C(=O)c2cccc(C)c2C)CCN1C[C@@H](N)CS [Example 8, 1-[2(R)-Amino-3-mercaptopropyl]-4-(2,3-dimethylbenzoyl)-2(S)-(2-methylthioethyl)piperazine dihydrochloride]
- IC50 [1]: 0.5 to 1 µM
- IC50 [2]: 0.011 µM

Compound: COCC[C@H]1CN(C(=O)c2cccc(C)c2C)CCN1C[C@@H](N)CS [Example 7, 1-[2(R)-Amino-3-mercaptopropyl]-4-(2,3-dimethylbenzoyl)-2(S)-(2-methoxyethyl)piperazine dihydrochloride]
- IC50 [1]: 0.5 to 1 µM

Compound: CC[C@H](C)C(=O)O[C@H]1C[C@@H](C)C=C2C=C[C@H](C)[C@H](CC[C@@H]3C[C@@H](O)CC(=O)O3)[C@H]21 [lovastatin]
- Inhibition of Ras farnesylation in vivo (Ras farnesylation): Inhibition of Ras farnesylation in vivo has been demonstrated

Compound: Cc1cccc(C(=O)N2CCN(C[C@@H](N)CS)[C@@H](Cc3ccccc3)C2)c1C [Example 6, 1-[2(R)-Amino-3-mercaptopropyl]-2(S)-benzyl-4-(2,3-dimethylbenzoyl)piperazine dihydrochloride]
- IC50 [1]: 0.5 to 1 µM
- IC50 [2]: 0.004 µM

- IC50 [2]: 0.001 µM
Compound: N[C@@H](CS)CN1CCN(C(=O)c2cccc3ccccc23)C[C@@H]1CCOCc1cccnc1 [Example 14, 1-[2(R)-Amino-3-mercaptopropyl]-2(S)-(2-(3-pyridylmethoxy)ethyl)-4-(1-naphthoyl)piperazine trihydrochloride]

Compound: CC(=O)NCCCC[C@H]1CN(C(=O)c2cccc3ccccc23)CCN1C[C@@H](N)CS [Example 27, 1-[2(R)-Amino-3-mercaptopropyl]-4-(1-naphthoyl)-2(S)-(4-acetamidobutyl)piperazine dihydrochloride]
- IC50 [1]: 0.5 µM
- IC50 [2]: 0.0035 µM

Compound: COC(=O)C1CN(C[C@@H](N)CS)CCN1Cc1cccc2ccccc12 (stereo partly drawn) [Example 31, Methyl 4-(2(R)-amino-3-mercaptopropyl)-l-(1-naphthylmethyl)piperazine-2-carboxylate hydrochloride]
- IC50 [1]: 10 µM
- IC50 [2]: 0.0029 µM

Compound: CCCC[C@H]1CN(C(=O)c2cccc3cccnc23)CCN1C[C@@H](N)CS [Example 19, 1-(2(R)-Amino-3-mercaptopropyl)-2(S)-n-butyl-4-(8-quinolinylcarbonyl)piperazine trihydrochloride]
- IC50 [1]: 1 µM
- IC50 [2]: 0.005 µM

Compound: CC[C@H](C)C(=O)O[C@H]1CCC=C2C=C[C@H](C)[C@H](CC[C@@H]3C[C@@H](O)CC(=O)O3)[C@H]21 [compactin]
- Inhibition of Ras farnesylation in vivo (Ras farnesylation): Inhibition of Ras farnesylation in vivo has been demonstrated

- IC50 [2]: 0.001 µM
Compound: 1-[2(R)-Amino-3-mercaptopropyl]-4-(1-naphthoyl)-2(S)-(3-methoxy-1-propyl)piperazine dihydrochloride [Example 18]

Compound: NC(CS)CN1CCN(C(=O)c2cccc3ccccc23)CC1C(=O)N1CCCCC1 [Example 30, 1-(2(R)-Amino-3-mercaptopropyl)-4-(1-naphthoyl)-2(S)-piperidylcarboxyl-4-piperazine dihydrochloride]
- IC50 [1]: 0.5 µM
- IC50 [2]: 0.003 µM

Compound: N[C@@H](CS)CN1CCCN(C(=O)c2cccc3ccccc23)CC1 [Example 28, 1-(2(R)-Amino-3-mercaptopropyl)-4-(1-naphthoyl)homopiperazine dihydrochloride]
- IC50 [1]: 10 µM
- IC50 [2]: 0.021 µM

- IC50 [2]: 0.006 µM
Compound: CCCOCC[C@H]1CN(C(=O)c2cccc3cccnc23)CCN1C[C@@H](N)CS [Example 15, 1-[2(R)-Amino-3-mercaptopropyl]-2(S)-(2-(1-propoxy)ethyl)-4-(8-quinolinylcarbonyl)piperazine trihydrochloride]
